This test has as its target hTREM2 (Homo sapiens, UniProt Q9NZC2). Briefly: Phospho-Syk AlphaScreen/AlphaLISA assay in TREM2 and DAP12 overexpressing HEK293 cells (Example A1). It counts as cell-based. Set-up: expressed in transfected cells. As to conditions: HEK293 cells; for EC50: read-out: hTREM2 EC50. In outline: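 Single-cell-cloned HEK293 stably overexpressing TREM2 and DAP12, plated 20,000 cells/well for 20 h, then exposed to compounds (1% DMSO) 45 min at room temperature. Lysates probed for phospho-Syk by AlphaLISA sandwich (anti-pSyk, biotinylated anti-Syk); signal normalized to percent of control (100 nM anti-TREM2 antibody vs isotype) and fitted by 4-parameter logistic.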
A general note: Alpha assays give light when donor and acceptor beads are brought close together.

hTREM2, sequence (Q9NZC2 19-230): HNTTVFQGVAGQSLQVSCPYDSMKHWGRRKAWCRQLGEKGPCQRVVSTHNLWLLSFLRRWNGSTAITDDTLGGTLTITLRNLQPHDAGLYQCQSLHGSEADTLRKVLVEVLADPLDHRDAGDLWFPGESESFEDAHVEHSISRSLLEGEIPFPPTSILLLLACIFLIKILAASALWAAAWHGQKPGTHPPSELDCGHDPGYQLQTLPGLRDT
hTREM2, sequence (O43914 22-113 partner): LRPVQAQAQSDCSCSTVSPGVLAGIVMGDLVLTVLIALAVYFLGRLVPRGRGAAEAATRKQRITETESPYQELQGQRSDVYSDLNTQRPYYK

Broadly, the EC50 is the concentration needed to bring the measured effect to its halfway point. Regarding `Cc1nc2cc(N3CCO[C@@H](c4cnn(C(F)F)c4)C3)nc(-c3ccc(Cl)cc3F)c2c(=O)n1C` [Example 253, (S)-5-(4-chloro-2-fluorophenyl)-7-(2-(1-(difluoromethyl)-1H-pyrazol-4-yl)morpholino)-2,3-dimethylpyrido[4,3-d]pyrimidin-4(3H)-one], the Emax result is recorded as “++++ (Emax>300)” and the EC50 is < 50 nM.

On to `Cc1nc2cc(N3CC[C@H](c4ccncc4)C3)nc(-c3ccc(Cl)cc3F)c2c(=O)n1C` [Example 254, (R)-5-(4-chloro-2-fluorophenyl)-2,3-dimethyl-7-(3-(pyridin-4-yl)pyrrolidin-1-yl)pyrido[4,3-d]pyrimidin-4(3H)-one], for which the Emax result is reported as “++++ (Emax>300)” and the concentration for a half-maximal effect (EC50) was in the range of 3000 to 100000 nM.

As to `Cc1nc2cc(N3CC[C@H](N(C)C)C3)nc(-c3ccc(Cl)cc3F)c2c(=O)n1C` [Example 255, (S)-5-(4-chloro-2-fluorophenyl)-7-(3-(dimethylamino)pyrrolidin-1-yl)-2,3-dimethylpyrido[4,3-d]pyrimidin-4(3H)-one], the Emax result was “+++ (Emax>200 and ≤300)”; the EC50 lay in the range of 3000 to 100000 nM.

In the case of `Cc1nc2cc(N3CC[C@@H](C(F)(F)F)C3)nc(-c3ccc(Cl)cc3F)c2c(=O)n1C` [Example 256, (R)-5-(4-chloro-2-fluorophenyl)-2,3-dimethyl-7-(3-(trifluoromethyl)pyrrolidin-1-yl)pyrido[4,3-d]pyrimidin-4(3H)-one], the Emax entry was “++++ (Emax>300)” and the EC50 lay in the range of 3000 to 100000 nM.

As to `Cc1nc2cc(N3CC[C@H](C(F)(F)F)C3)nc(-c3ccc(Cl)cc3F)c2c(=O)n1C` [Example 257, (S)-5-(4-chloro-2-fluorophenyl)-2,3-dimethyl-7-(3-(trifluoromethyl)pyrrolidin-1-yl)pyrido[4,3-d]pyrimidin-4(3H)-one], the Emax result was “++ (Emax>100 and ≤200)”; the EC50 fell in the range of 500 to 3000 nM.

As for `Cc1nc2cc(N3CC[C@@H](C(F)F)C3)nc(-c3ccc(Cl)cc3F)c2c(=O)n1C` [Example 258, (R)-5-(4-chloro-2-fluorophenyl)-7-(3-(difluoromethyl)pyrrolidin-1-yl)-2,3-dimethylpyrido[4,3-d]pyrimidin-4(3H)-one], the Emax entry is “+++ (Emax>200 and ≤300)”; the concentration giving a half-maximal response (EC50) fell in the range of 3000 to 100000 nM.

Consider `Cc1nc2cc(N3CC[C@H](C(F)F)C3)nc(-c3ccc(Cl)cc3F)c2c(=O)n1C` [Example 259, (S)-5-(4-chloro-2-fluorophenyl)-7-(3-(difluoromethyl)pyrrolidin-1-yl)-2,3-dimethylpyrido[4,3-d]pyrimidin-4(3H)-one], for which the Emax result is “++ (Emax>100 and ≤200)”; the EC50 is 3000 to 100000 nM.

On to `Cc1nc2cc(N3CC[C@@H](c4cccnc4)C3)nc(-c3ccc(Cl)cc3F)c2c(=O)n1C` [Example 260, (S)-5-(4-chloro-2-fluorophenyl)-2,3-dimethyl-7-(3-(pyridin-3-yl)pyrrolidin-1-yl)pyrido[4,3-d]pyrimidin-4(3H)-one], for which the Emax entry is reported as “++++ (Emax>300)” and the EC50 lay in the range of 3000 to 100000 nM.

With `Cc1nc2cc(N3CC[C@H](c4cccnc4)C3)nc(-c3ccc(Cl)cc3F)c2c(=O)n1C` [Example 261, (R)-5-(4-chloro-2-fluorophenyl)-2,3-dimethyl-7-(3-(pyridin-3-yl)pyrrolidin-1-yl)pyrido[4,3-d]pyrimidin-4(3H)-one], the Emax result is listed as “++++ (Emax>300)” and the EC50 was 3000 to 100000 nM.

For the compound `Cc1c([C@H]2CN(c3cc4nc(C)n(C)c(=O)c4c(-c4ccc(Cl)cc4F)n3)CCO2)cnn1C` [Example 262, (S)-5-(4-chloro-2-fluorophenyl)-7-(2-(1,5-dimethyl-1H-pyrazol-4-yl)morpholino)-2,3-dimethylpyrido[4,3-d]pyrimidin-4(3H)-one], the Emax entry is “+++ (Emax>200 and ≤300)”; the 50% effective concentration (EC50) was in the range of 500 to 3000 nM.

As to `Cc1nn(C)cc1[C@H]1CN(c2cc3nc(C)n(C)c(=O)c3c(-c3ccc(Cl)cc3F)n2)CCO1` [Example 263, (S)-5-(4-chloro-2-fluorophenyl)-7-(2-(1,3-dimethyl-1H-pyrazol-4-yl)morpholino)-2,3-dimethylpyrido[4,3-d]pyrimidin-4(3H)-one], the Emax entry was “+++ (Emax>200 and ≤300)”; the EC50 was in the range of 50 to 500 nM.

With `CCn1c(C)nc2cc(N3CCO[C@H](c4noc(C)n4)C3)nc(-c3ccc(Cl)cc3F)c2c1=O` [Example 264, (S)-5-(4-chloro-2-fluorophenyl)-3-ethyl-2-methyl-7-(2-(5-methyl-1,2,4-oxadiazol-3-yl)morpholino)pyrido[4,3-d]pyrimidin-4(3H)-one], the Emax entry was “+++ (Emax>200 and ≤300)”; the half-maximal effective concentration (EC50) was in the range of 50 to 500 nM.

Regarding `Cc1nc2cc(N3CCO[C@H](c4ccnc(C(F)(F)F)c4)C3)nc(-c3ccc(Cl)cc3F)c2c(=O)n1C` [Example 265, (R)-5-(4-chloro-2-fluorophenyl)-2,3-dimethyl-7-(2-(2-(trifluoromethyl)pyridin-4-yl)morpholino)pyrido[4,3-d]pyrimidin-4(3H)-one], the Emax entry is “+++ (Emax>200 and ≤300)”; the concentration giving a half-maximal response (EC50) was in the range of 500 to 3000 nM.

Turning to `Cc1nc2cc(N3CCO[C@@H](c4ccnc(C(F)(F)F)c4)C3)nc(-c3ccc(Cl)cc3F)c2c(=O)n1C` [Example 266, (S)-5-(4-chloro-2-fluorophenyl)-2,3-dimethyl-7-(2-(2-(trifluoromethyl)pyridin-4-yl)morpholino)pyrido[4,3-d]pyrimidin-4(3H)-one], the Emax entry is “+++ (Emax>200 and ≤300)”; the EC50 is < 50 nM.

In the case of `COc1cc([C@@H]2C[C@H](c3cc4nc(C)n(C)c(=O)c4c(-c4ccc(Cl)cc4F)n3)CCO2)ccn1` [Example 267, 5-(4-chloro-2-fluorophenyl)-7-((2S,4R)-2-(2-methoxypyridin-4-yl)tetrahydro-2H-pyran-4-yl)-2,3-dimethylpyrido[4,3-d]pyrimidin-4(3H)-one], the Emax entry is “+++ (Emax>200 and ≤300)”; the concentration giving a half-maximal response (EC50) was < 50 nM.

Take `COc1cc([C@@H]2C[C@@H](c3cc4nc(C)n(C)c(=O)c4c(-c4ccc(Cl)cc4F)n3)CCO2)ccn1` [Example 268, 5-(4-chloro-2-fluorophenyl)-7-((2S,4S)-2-(2-methoxypyridin-4-yl)tetrahydro-2H-pyran-4-yl)-2,3-dimethylpyrido[4,3-d]pyrimidin-4(3H)-one]: the Emax result is “++++ (Emax>300)” and the EC50 fell in the range of 50 to 500 nM.

With `Cc1nc2cc(N3CCO[C@H]([C@@H]4CCO4)C3)nc(-c3ccc(Cl)cc3F)c2c(=O)n1C` [Example 269, 5-(4-chloro-2-fluorophenyl)-2,3-dimethyl-7-((S)-2-((S)-oxetan-2-yl)morpholino)pyrido[4,3-d]pyrimidin-4(3H)-one], the Emax entry is “++++ (Emax>300)” and the EC50 is 500 to 3000 nM.

As to `Cc1nc2cc(N3CCO[C@@H]([C@@H]4CCO4)C3)nc(-c3ccc(Cl)cc3F)c2c(=O)n1C` [Example 270, 5-(4-chloro-2-fluorophenyl)-2,3-dimethyl-7-((R)-2-((S)-oxetan-2-yl)morpholino)pyrido[4,3-d]pyrimidin-4(3H)-one], the Emax result is “+++ (Emax>200 and ≤300)”; the concentration giving a half-maximal response (EC50) lay in the range of 500 to 3000 nM.

Take `Cc1nnc([C@H]2CN(c3cc4nc(C)n(C)c(=O)c4c(-c4ccc(Cl)cc4F)n3)CCO2)o1` [Example 271, (R)-5-(4-chloro-2-fluorophenyl)-2,3-dimethyl-7-(2-(5-methyl-1,3,4-oxadiazol-2-yl)morpholino)pyrido[4,3-d]pyrimidin-4(3H)-one]: the Emax result was “+++ (Emax>200 and ≤300)”; the EC50 lay within 50 to 500 nM.

With `Cc1ccc([C@@H]2C[C@@H](c3cc4nc(C)n(C)c(=O)c4c(-c4ccc(Cl)cc4F)n3)CCO2)cn1` [Example 272, 5-(4-chloro-2-fluorophenyl)-2,3-dimethyl-7-((2S,4S)-2-(6-methylpyridin-3-yl)tetrahydro-2H-pyran-4-yl)pyrido[4,3-d]pyrimidin-4(3H)-one], the Emax entry is listed as “++++ (Emax>300)” and the concentration for a half-maximal effect (EC50) lay within 50 to 500 nM.

For `Cc1ccc([C@H]2C[C@@H](c3cc4nc(C)n(C)c(=O)c4c(-c4ccc(Cl)cc4F)n3)CCO2)cn1` [Example 273, 5-(4-chloro-2-fluorophenyl)-2,3-dimethyl-7-((2R,4S)-2-(6-methylpyridin-3-yl)tetrahydro-2H-pyran-4-yl)pyrido[4,3-d]pyrimidin-4(3H)-one], the Emax entry is listed as “++++ (Emax>300)” and the 50% effective concentration (EC50) lay in the range of 50 to 500 nM.

With `Cc1ccc([C@@H]2C[C@H](c3cc4nc(C)n(C)c(=O)c4c(-c4ccc(Cl)cc4F)n3)CCO2)cn1` [Example 274, 5-(4-chloro-2-fluorophenyl)-2,3-dimethyl-7-((2S,4R)-2-(6-methylpyridin-3-yl)tetrahydro-2H-pyran-4-yl)pyrido[4,3-d]pyrimidin-4(3H)-one], the Emax result is “++++ (Emax>300)” and the EC50 lay within 50 to 500 nM.

As for `Cc1nc2cc([C@@H]3CCO[C@H](c4cnn(C)c4)C3)nc(-c3ccc(Cl)cc3F)c2c(=O)n1C` [Example 275, 5-(4-chloro-2-fluorophenyl)-2,3-dimethyl-7-((2S,4R)-2-(1-methyl-1H-pyrazol-4-yl)tetrahydro-2H-pyran-4-yl)pyrido[4,3-d]pyrimidin-4(3H)-one], the Emax entry was “++ (Emax>100 and ≤200)”; the concentration for a half-maximal effect (EC50) was < 50 nM.

“ethyl (2R,4S)-4-(5-(4-chloro-2-fluorophenyl)-2,3-dimethyl-4-oxo-3,4-dihydropyrido[4,3-d]pyrimidin-7-yl)tetrahydro-2H-pyran-2-carboxylate and ethyl (2S,4R)-4-(5-(4-chloro-2-fluorophenyl)-2,3-dimethyl-4-oxo-3,4-dihydropyrido[4,3-d]pyrimidin-7-yl)tetrahydro-2H-pyran-2-carboxylate [Example 167]”: the Emax result was “++++ (Emax>300)” and the EC50 was 50 to 500 nM.
